Experimental data: patent US5863899A (priority 1994, dated 1999)
Read-outs that look alike come from different tables or passages of the source. Square brackets hold non-standard residues; d marks the D form. Peptide text beside a SMILES is read from it. * marks the point of attachment. X13 = COc1ccc2c3c1O[C@H]1C(NC(=O)CNC(=O)CCSC4CC(=O)N(CCCCCCN5C(=O)CC(*)C5=O)C4=O)CC[C@@]4(O)[C@@H](C2)N(C)CC[C@]314; X9 = COc1ccc2c3c1O[C@H]1C(NCCSC4CC(=O)N(CCCCCCN5C(=O)CC(*)C5=O)C4=O)CC[C@@]4(O)[C@@H](C2)N(C)CC[C@]314; X1 = CN1CC[C@]23c4c5ccc(O)c4O[C@H]2C(NCCSC2CC(=O)N(CCCCCCN4C(=O)CC(*)C4=O)C2=O)CC[C@@]3(O)[C@H]1C5; X4 = CC(C)(C)c1ccc(C(C)(C)C(=O)Oc2ccc(S(=O)(=O)CCCC(=O)OCCCCCCN3C(=O)CC(*)C3=O)cc2)cc1; X7 = COc1ccc2c(c1)c(CC(=O)OCCCCCCN1C(=O)CC(*)C1=O)c(C)n2C(=O)c1ccc(Cl)cc1; Oic = O=C(O)[C@@H]1C[C@@H]2CCCC[C@@H]2N1; Hyp = O=C(O)[C@@H]1C[C@@H](O)CN1; dTic = O=C(O)[C@H]1Cc2ccccc2CN1; 2Thi = N[C@@H](Cc1cccs1)C(=O)O; X20 = O=C1CC(*)C(=O)N1CCCCCCO

Experiments:
[1] = biological target: T1, purified human neutrophil elastase (HNE) (Homo sapiens, UniProt P08246); assay: neutrophil elastase inhibition with chromogenic substrate MOS-AAPV-pNA; format: biochemical
T1 sequence (P08246 30-247 limits assumed): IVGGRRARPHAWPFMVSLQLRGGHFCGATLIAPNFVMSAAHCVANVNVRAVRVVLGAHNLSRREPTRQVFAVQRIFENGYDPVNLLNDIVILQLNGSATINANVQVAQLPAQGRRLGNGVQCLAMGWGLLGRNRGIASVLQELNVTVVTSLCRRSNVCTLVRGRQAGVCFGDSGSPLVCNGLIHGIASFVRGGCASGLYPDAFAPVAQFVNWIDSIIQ

BK2-receptor [2] = biological target: T2, BK2-receptor (Rattus norvegicus, UniProt P25023); assay: cell-based
T2 sequence (P25023 1-396): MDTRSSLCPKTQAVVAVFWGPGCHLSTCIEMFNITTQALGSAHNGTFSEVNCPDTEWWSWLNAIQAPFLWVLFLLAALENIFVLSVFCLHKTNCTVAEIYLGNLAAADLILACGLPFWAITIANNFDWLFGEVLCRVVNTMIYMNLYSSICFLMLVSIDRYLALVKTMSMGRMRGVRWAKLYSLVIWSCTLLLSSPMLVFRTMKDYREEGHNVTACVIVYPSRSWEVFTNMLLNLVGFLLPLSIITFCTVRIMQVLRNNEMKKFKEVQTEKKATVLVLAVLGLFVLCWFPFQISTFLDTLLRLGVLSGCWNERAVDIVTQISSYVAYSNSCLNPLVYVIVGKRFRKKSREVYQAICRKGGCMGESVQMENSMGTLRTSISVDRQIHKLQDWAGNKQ

in vitro = assay: in vitro
Procedure: Unfortunately, there are no established animal models that can be employed to assess combined BKAn and NEI activity in vivo. Therefore, in order to assess the potential for in vivo hydrolysis of the intact heterodimer, an in vitro "surrogate" system was employed wherein the parent heterodimer (CP-0502) was incubated with human plasma and the resulting metabolites analyzed by reverse phase HPLC.
CP-0502 was added to freshly obtained normal human plasma and allowed to incubate at 37° C. for varying amounts of time. At the designated time the samples were treated with acidified (0.1N HCl) acetonitrile in order to precipitate the plasma proteins. Aliquots (75 ul) of the supernatents were then analyzed on a Vydac C-18 reverse phase HPLC column using 24% to 80% acetonitrile gradient in 0.1% TFA. The eluent was monitored at 214 nm.

[3] = test system: rat lung parenchymal strips (cyclooxygenase dependent contraction); assay: rat lung parenchymal strips challenged with arachidonic acid; format: cell-based; conditions: contraction in response to exogenously applied arachidonic acid
Description: As mentioned previously, for the COI to work it may need to be dissociated from the BKAn so as to allow for its intracellular penetration. Therefore, in order to evaluate the functional activity of a BKAn/COI heterodimer, CP-0460 was exposed to rat lung parenchymal strips which were then challenged with arachidonic acid. This tissue is known to contain both non-specific esterase activity as well as to convert arachidonic acid to thromboxane (via a cyclooxygenase dependent pathway) which is then ultimately responsible for the smooth muscle contraction observed in this assay.

BK2-receptor [4] = biological target: T2, BK2-receptor
[5] = test system: mice injected in the hind limb foot pad with formalin; assay: mouse formalin test (model of inflammatory and neurogenic pain); format: in vivo; conditions: for narcotic / behavioral effects in the formalin test: oxymorphone: highest doses 0.9 and 3.0 umoles/kg, CP-0494: over several hours
Procedure: In order to test the activity of these compounds in vivo, a model of inflammatory and neurogenic pain was used. This model measures the behavioral responses of mice injected in the hind limb foot pad with 50 ul of formalin. Control mice (open circles) show a characteristic bi-phasic response to the injected formalin wherein there is a short lasting initial response followed by a quiescent period which is then followed by a sustained period of hind limb licking. The licking behavior is interpreted to mean that the limb is irritated and painful. The greater the time spent licking, the more painful the stimulus.

mu-opiate receptor = mu-opiate receptor (Cavia porcellus, UniProt A0ACM8Q262); assay: electrically stimulated guinea pig ileum assay; format: cell-based; conditions: in vitro mu-opiate receptor agonist activity
[6] = freshly obtained normal human plasma; conditions: 37° C., up to 180 minutes
[7] = Table II, MOS-AAPV-pNA 0.5 mM, pH 7.5, 25 C

mu-opiate receptor, sequence (A0ACM8Q262 1-400): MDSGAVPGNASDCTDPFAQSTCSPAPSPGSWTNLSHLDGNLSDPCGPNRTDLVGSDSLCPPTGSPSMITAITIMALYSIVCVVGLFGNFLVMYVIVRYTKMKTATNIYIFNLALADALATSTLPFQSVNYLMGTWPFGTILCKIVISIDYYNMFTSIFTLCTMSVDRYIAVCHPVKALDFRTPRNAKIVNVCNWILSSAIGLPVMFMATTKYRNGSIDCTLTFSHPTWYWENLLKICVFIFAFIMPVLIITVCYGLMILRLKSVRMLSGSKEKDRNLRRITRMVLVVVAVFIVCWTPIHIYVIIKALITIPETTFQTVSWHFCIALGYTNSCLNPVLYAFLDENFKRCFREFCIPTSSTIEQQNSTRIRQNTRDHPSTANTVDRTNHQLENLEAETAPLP

## CC(C)C[C@H](NC(=O)[C@@H](Cc1ccccc1)NC(=O)[C@H](CS)NC(=O)[C@H](Cc1ccccc1)NC(=O)CNC(=O)[C@@H]1C[C@@H](O)CN1C(=O)[C@@H]1CCCN1C(=O)[C@H](CCCNC(=N)N)NC(=O)[C@H](N)CCCNC(=N)N)C(=O)N[C@@H](CCCNC(=N)N)C(=O)O [CP-0126, D R-R-P-J-G-F-C-D F-L-R] (HELM PEPTIDE1{[dR].R.P.[Hyp].G.F.C.[dF].L.R}$$$$V2.0)
[1]; [7]
  Ki^ss (HNE): inactive

## COc1ccc2c3c1O[C@H]1C(NC(=O)CNC(=O)CCSC4CC(=O)N(CCCCCCN5C(=O)CC(SC[C@H](NC(=O)[C@H](Cc6ccccc6)NC(=O)CNC(=O)[C@@H]6C[C@@H](O)CN6C(=O)[C@@H]6CCCN6C(=O)[C@H](CCCNC(=N)N)NC(=O)[C@H](N)CCCNC(=N)N)C(=O)N[C@H](Cc6ccccc6)C(=O)N[C@@H](CC(C)C)C(=O)N[C@@H](CCCNC(=N)N)C(=O)O)C5=O)C4=O)CC[C@@]4(O)[C@@H](C2)N(C)CC[C@]314 (stereo partly shown) [CP-0488] (H-[dR]RP[Hyp]GFC(X13)[dF]LR-OH)
BK2-receptor [2]
  Kb: 6.31 nM

## CC(C)C[C@H](NC(=O)[C@@H](Cc1ccccc1)NC(=O)[C@H](CSC1CC(=O)N(CCCCCCOC(=O)CCCS(=O)(=O)c2ccc(OC(=O)C(C)(C)c3ccc(C(C)(C)C)cc3)cc2)C1=O)NC(=O)[C@H](Cc1ccccc1)NC(=O)CNC(=O)[C@@H]1C[C@@H](O)CN1C(=O)[C@@H]1CCCN1C(=O)[C@H](CCCNC(=N)N)NC(=O)[C@H](N)CCCNC(=N)N)C(=O)N[C@@H](CCCNC(=N)N)C(=O)O (stereo partly shown) [CP-0502] (H-[dR]RP[Hyp]GFC(X4)[dF]LR-OH)
[1]
  Ki: 6.6 nM
In vitro; human, plasma (freshly obtained normal human plasma)
  half-life: ~1.88 h
In vitro; normal human plasma, 37° C., to CP-0487 and its des-Arg9 derivative
  hydrolysis in human plasma (HPLC): readily hydrolyzed
BK2-receptor [2]
  Kb: 31.6 nM

## COc1ccc2c(c1)c(CC(=O)O)c(C)n2C(=O)c1ccc(Cl)cc1 [indomethacin]
[3]
  log dose ratio shift: 0.998+/-0.425
BK2-receptor [4]; intact compound
  pA2, standard rat uterus assay: no effect on this assay at any concentration

## CC(C)C[C@H](NC(=O)[C@@H](Cc1ccccc1)NC(=O)[C@H](CSC1CC(=O)N(CCCCCCO)C1=O)NC(=O)[C@H](Cc1ccccc1)NC(=O)CNC(=O)[C@@H]1C[C@@H](O)CN1C(=O)[C@@H]1CCCN1C(=O)[C@H](CCCNC(=N)N)NC(=O)[C@H](N)CCCNC(=N)N)C(=O)N[C@@H](CCCNC(=N)N)C(=O)O (stereo partly shown) [CP-0487] (H-[dR]RP[Hyp]GFC(X20)[dF]LR-OH)
[1]; [7]
  Ki^ss (HNE): inactive
BK2-receptor [2]
  Kb: 3.98 nM

## COc1ccc2c3c1O[C@H]1C(NCCSC4CC(=O)N(CCCCCCN5C(=O)CC(SC[C@H](NC(=O)[C@H](Cc6ccccc6)NC(=O)CNC(=O)[C@@H]6C[C@@H](O)CN6C(=O)[C@@H]6CCCN6C(=O)[C@H](CCCNC(=N)N)NC(=O)[C@H](N)CCCNC(=N)N)C(=O)N[C@H](Cc6ccccc6)C(=O)N[C@@H](CC(C)C)C(=O)N[C@@H](CCCNC(=N)N)C(=O)O)C5=O)C4=O)CC[C@@]4(O)[C@@H](C2)N(C)CC[C@]314 (stereo partly shown) [CP-0477] (H-[dR]RP[Hyp]GFC(X9)[dF]LR-OH)
BK2-receptor [2]
  Kb: 12.6 nM

## CN1CC[C@]23c4c5ccc(O)c4O[C@H]2C(=O)CC[C@@]3(O)[C@H]1C5 [oxymorphone]
[5]; 50 ul formalin in hind limb foot pad
  effect on licking behavior (both phases) in the formalin test: reduces both phases of the licking behavior
[5]; mouse formalin test
  dose at which both phases of the pain response are blocked: 0.9 µmol/kg
[5]
  narcotic / behavioral effects in the formalin test: significant behavioral obtundation resulting in catalepsy and frank respiratory depression
BK2-receptor [4]; Table I, BK2-receptor activity
  pA2 -Rat Uterus: inactive

## CC(C)C[C@H](NC(=O)[C@@H](Cc1ccccc1)NC(=O)[C@H](CSC1CC(=O)N(CCCCCCN2C(=O)CC(SCCNC3CC[C@@]4(O)[C@H]5Cc6ccc(O)c7c6[C@@]4(CCN5C)[C@H]3O7)C2=O)C1=O)NC(=O)[C@H](Cc1ccccc1)NC(=O)CNC(=O)[C@@H]1C[C@@H](O)CN1C(=O)[C@@H]1CCCN1C(=O)[C@H](CCCNC(=N)N)NC(=O)[C@H](N)CCCNC(=N)N)C(=O)N[C@@H](CCCNC(=N)N)C(=O)O (stereo partly shown) [CP-0494] (H-[dR]RP[Hyp]GFC(X1)[dF]LR-OH)
[5]
  narcotic / behavioral effects in the formalin test: no observable narcotic effects
BK2-receptor [2]
  Kb: 3.98 nM

## COc1ccc2c3c1O[C@H]1C(=O)CC[C@@]4(O)[C@@H](C2)N(C)CC[C@]314 [oxycodone]
mu-opiate receptor
  activity in guinea pig ileum assay: neither oxycodone nor the heterodimers derived from oxycodone (CP-0477 and CP-0488) showed any activity
BK2-receptor [4]; Table I, BK2-receptor activity
  pA2 -Rat Uterus: inactive

## COc1ccc2c(c1)c(CC(=O)OCCCCCCN1C(=O)CC(SC[C@H](NC(=O)[C@H](Cc3ccccc3)NC(=O)CNC(=O)[C@@H]3C[C@@H](O)CN3C(=O)[C@@H]3CCCN3C(=O)[C@H](CCCNC(=N)N)NC(=O)[C@H](N)CCCNC(=N)N)C(=O)N[C@H](Cc3ccccc3)C(=O)N[C@@H](CC(C)C)C(=O)N[C@@H](CCCNC(=N)N)C(=O)O)C1=O)c(C)n2C(=O)c1ccc(Cl)cc1 (stereo partly shown) [CP-0460] (H-[dR]RP[Hyp]GFC(X7)[dF]LR-OH)
BK2-receptor [2]
  Kb: ~15.8 nM

## CC(C)(C)c1ccc(C(C)(C)C(=O)Oc2ccc(CCCC(=O)O)cc2)cc1 [CE-1218, 4-(3'-carboxy-propyl)phenyl 4-tert-butylphenylisobutyrate]
[1]; Table II, MOS-AAPV-pNA 0.5 mM, pH 7.5, 25 C, read-out: Ki^ss (HNE)
  Ki: 10.5 nM
BK2-receptor [4]; Table II
  pA2 -Rat Uterus: inactive

## N=C(N)NCCC[C@@H](N)C(=O)N[C@@H](CCCNC(=N)N)C(=O)N1CCC[C@H]1C(=O)N1C[C@H](O)C[C@H]1C(=O)NCC(=O)N[C@@H](Cc1cccs1)C(=O)N[C@@H](CS)C(=O)N1Cc2ccccc2C[C@@H]1C(=O)N1[C@H](C(=O)N[C@@H](CCCNC(=N)N)C(=O)O)C[C@@H]2CCCC[C@@H]21 [CP-0347, D R-R-P-J-G-Thi-C-D Tic-Oic-R] (H-[dR]RP[Hyp]G[2Thi]C[dTic][Oic]R-OH)
BK2-receptor [2]
  Kb: 0.316 nM

## D R-R-P-J-G-F-C-D F-L-R
[6]
  cleaved bond: Leu8-Arg9
  fragment found: CP-0487
